Test results from ChEMBL document CHEMBL3714747, “Imidazothiadiazole and imidazopyrazine derivatives as protease activated receptor 4 (par4) inhibitors for treating platelet aggregation” (2015).

Assays:
Cynomolgus monkey [1] = assay: (§1) Antithrombotic activity in cynomolgus monkey electrolytic injury-induced carotid artery thrombosis model assessed as reduction in thrmbosis-induced occlusion at […], po dosed 1 to 2 hrs before test; format: functional; conditions: Macaca fascicularis
Cynomolgus monkey [2] = assay: Antithrombotic activity in cynomolgus monkey electrolytic injury-induced carotid artery thrombosis model assessed as reduction in thrmbosis-induced occlusion at 0.5 mg/kg, po dosed 1 to 2 hrs before test; format: functional; conditions: Macaca fascicularis
Cynomolgus monkey [3] = assay: Antithrombotic activity in cynomolgus monkey electrolytic injury-induced carotid artery thrombosis model assessed as reduction in thrmbosis-induced occlusion at 0.1 mg/kg, po dosed 1 to 2 hrs before test; format: functional; conditions: Macaca fascicularis
Cynomolgus monkey [4] = assay: Antithrombotic activity in cynomolgus monkey electrolytic injury-induced carotid artery thrombosis model assessed as reduction in thrmbosis-induced occlusion at 0.02 mg/kg, po dosed 1 to 2 hrs before test; format: functional; conditions: Macaca fascicularis
Cynomolgus monkey [5] = assay: as §1; format: functional; conditions: Macaca fascicularis; remark: listed apart in the source
[6] = biological target: T1, Proteinase-activated receptor 4 (Homo sapiens, UniProt Q96RI0); assay: Antagonist activity against human PAR4 expressed in HEK293 cells assessed as reduction in H-Ala-Phe(4-F)-Pro-Gly-Trp-Leu-Val-Lys-Asn-Gly-NH2-induced intracellular calcium mobilization incubated for 30 mins by FLIPR assay; format: functional, cell-based
T1 sequence (Q96RI0 whole entry): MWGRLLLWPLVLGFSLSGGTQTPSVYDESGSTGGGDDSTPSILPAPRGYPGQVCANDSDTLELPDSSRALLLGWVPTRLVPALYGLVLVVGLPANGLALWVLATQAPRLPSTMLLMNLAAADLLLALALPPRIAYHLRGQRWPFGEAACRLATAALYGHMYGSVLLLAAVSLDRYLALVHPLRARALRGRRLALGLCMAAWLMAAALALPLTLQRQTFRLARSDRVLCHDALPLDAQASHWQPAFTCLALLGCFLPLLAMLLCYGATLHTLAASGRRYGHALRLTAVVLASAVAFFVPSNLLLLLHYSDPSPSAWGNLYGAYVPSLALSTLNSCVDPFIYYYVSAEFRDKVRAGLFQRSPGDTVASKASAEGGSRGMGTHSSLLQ

| Structure (SMILES) | inhibition in vivo at […] (Cynomolgus monkey [1]) | inhibition in vivo at 0.5 mg/kg (Cynomolgus monkey [2]) | inhibition in vivo at 0.1 mg/kg (Cynomolgus monkey [3]) | inhibition in vivo at 0.02 mg/kg (Cynomolgus monkey [4]) | inhibition in vivo at […] (Cynomolgus monkey [5]) | EC50 [6] |
| --- | --- | --- | --- | --- | --- | --- |
| COc1cc(OCc2csc(-c3ccccc3)n2)c2cc(-c3cn4nc(OC)sc4n3)oc2c1 | 46% | 47% | 24% | 19% | 51% | – |
| COc1cc(OCc2csc(N3CCN(c4cnccn4)CC3)n2)c2cc(-c3cn4nc(C)ccc4n3)oc2c1 | – | – | – | – | – | 0.42 nM |
